Results as given in patent publication US10894085B2, “System for thermotherapy treatment or prevention of antimicrobial resistant or biofilm infections” (FUNDACIÓ HOSPITAL UNIVERSITARI VALL D'HEBRON—INSTITUT DE …, priority 2016, dated 2021).
Converted amounts (≈) assume the structure as drawn. Like-named read-outs stand apart in the source and are kept apart here.

Experiments:
Type in all cases: cell-based
[1] = system: Klebsiella pneumoniae strains; assay: Antibiotic susceptibility (CLSI category) of K. pneumoniae clinical isolates; for Antibiotic susceptibility and clinical category (CLSI breakpoint): key: S, susceptible; R, resistant; I, intermediate
[2] = system: Acinetobacter baumannii isogenic strains; assay: microbe, parasite or virus in culture; settings: for MIC: Acinetobacter baumannii
[3] = system: Pseudomonas aeruginosa strains; assay: Susceptibility (MIC, CLSI category) of P. aeruginosa clinical isolates; settings: for MIC: Pseudomonas aeruginosa, read-out: MIC; for clinical category (CLSI breakpoint): key: S, susceptible; R, resistant; I, intermediate
K. pneumoniea = assay: MIC by broth microdilution (Table 4), K. pneumoniae; settings: Klebsiella pneumoniae
Procedure: (§1) The minimum inhibitory concentration (MIC) values were determined by broth microdilution method according to “Methods for Dilution Antimicrobial Susceptibility Tests for Bacteria That Grow Aerobically: Approved Standard M7-A7. CLSI, Wayne, Pa., USA, 2006” Colistin and amikacin free drugs were evaluated to compare the efficacy of nanoparticles. MIC was evaluated in Pa46, Pa1016, Kp1, Kp4, Abl4, Ab4256, MRSA 15, MRSA 16, SE14 an SE94 strains. ATCC P. aeruginosa 27853, ATCC E. coli 25922 and ATCC A. baumannii 19606 were used as quality control.

A. baumannii = assay: MIC by broth microdilution (Table 4), A. baumannii; settings: Acinetobacter baumannii
Procedure: as §1

[4] = system: methicillin-resistant S. aureus; assay: MIC by broth microdilution (Table 4), MRSA
Procedure: as §1

P. aeruginosa = assay: MIC by broth microdilution (Table 4), P. aeruginosa; settings: Pseudomonas aeruginosa
Procedure: as §1

S. epidermidis = assay: MIC by broth microdilution (Table 4), S. epidermidis; settings: Staphylococcus epidermidis
Procedure: as §1

[5] = strain Kp1 (XDR, CTX-M, OXA-48)
[6] = read-out: MIC values, strain Abl1 (ST103)
[7] = read-out: MIC values, strain Abl4 (ST2)
[8] = read-out: MIC values, strain Abl4256 (ST38)
[9] = strain Pa46 (ST111, XDR, VIM-2)
[10] = strain Pa54 (ST111, XDR, VIM-2)

| Compound | Antibiotic susceptibility and clinical category (CLSI breakpoint) [1, 5] | Antibiotic susceptibility and clinical category (CLSI breakpoint) ([1]; strain Kp2 (XDR, CTX-M, NDM)) | Antibiotic susceptibility and clinical category (CLSI breakpoint) ([1]; strain Kp3 (XDR, KPC)) | Antibiotic susceptibility and clinical category (CLSI breakpoint) ([1]; strain Kp4 (XDR, AmpC)) | MIC [2, 6] [µg/mL] | MIC [2, 7] [µg/mL] | MIC [2, 8] [µg/mL] | MIC [3, 9] [µg/mL] | MIC [3, 10] [µg/mL] | MIC ([3]; strain Pa1016 (ST175, XDR)) [µg/mL] | also measured |
| --- | --- | --- | --- | --- | --- | --- | --- | --- | --- | --- | --- |
| C[C@@H](O)[C@H]1C(=O)N2C(C(=O)O)=C(SCCN=CN)C[C@H]12 [IMP, imipenem] | R | R | R | R | ≥ 16 | ≥ 16 | 64 (≈ 214 µM) | 256 (≈ 855 µM) | 256 (≈ 855 µM) | 16 (≈ 53.4 µM) |  |
| CCN1CCN(C(=O)N[C@@H](C(=O)N[C@@H]2C(=O)N3[C@@H]2SC(C)(C)[C@@H]3C(=O)O)c2ccccc2)C(=O)C1=O [PIP] |  |  |  |  |  |  |  |  |  |  | MIC values ([2]; strain Abl1 (ST103)): >=128 mg/L; MIC values ([2]; strain Abl4 (ST2)): >=128 mg/L; MIC values ([2]; strain Abl4256 (ST38)): >64 µg/mL |
| gentamicin | R | R | S | R |  |  |  |  |  |  | susceptibility ([1]; strain Kp3): susceptible; MIC values ([2]; strain Abl1 (ST103)): >=16 mg/L; MIC values ([2]; strain Abl4 (ST2)): 4 µg/mL; MIC values ([2]; strain Abl4256 (ST38)): >8 µg/mL |
| C[C@H]1COc2c(N3CCN(C)CC3)c(F)cc3c(=O)c(C(=O)O)cn1c23 [LVX, levofloxacin] |  |  |  |  | 4 (≈ 11.1 µM) | 4 (≈ 11.1 µM) | ≤ 1 | 32 (≈ 88.6 µM) | 32 (≈ 88.6 µM) | 128 (≈ 354 µM) | clinical category (CLSI breakpoint) ([3]; strain Pa46): R; clinical category (CLSI breakpoint) ([3]; strain Pa54): R; clinical category (CLSI breakpoint) ([3]; strain Pa1016): R |
| C[C@@H]1O[C@@H]1P(=O)(O)O [FOS, fosfomycin] | S | S | R | R |  |  |  |  |  |  | susceptibility ([1]; strain Kp1): susceptible; susceptibility ([1]; strain Kp2): susceptible |
| CO/N=C(\C(=O)N[C@@H]1C(=O)N2C(C(=O)[O-])=C(C[N+]3(C)CCCC3)CS[C@H]12)c1csc(N)n1 [FEP, cefepime] | R | R | R | R | ≥ 64 | ≥ 64 | 16 (≈ 33.3 µM) |  |  |  |  |
| NCC[C@H](O)C(=O)N[C@@H]1C[C@H](N)[C@@H](O[C@H]2O[C@H](CN)[C@@H](O)[C@H](O)[C@H]2O)[C@H](O)[C@H]1O[C@H]1O[C@H](CO)[C@@H](O)[C@H](N)[C@H]1O [Amikacin, amikacin] | S | R | R | S |  | ≤ 2 |  | 16 (≈ 27.3 µM) | 16 (≈ 27.3 µM) | 2 (≈ 3.42 µM) | MIC (K. pneumoniea; strain Kp1, read-out: MIC): 2 µg/mL (≈ 3.42 µM); MIC (K. pneumoniea; strain Kp4, read-out: MIC): 1 to 2 µg/mL (≈ 1.71 to 3.42 µM); MIC (A. baumannii; strain Ab4256, read-out: MIC): 8 µg/mL (≈ 13.7 µM); MIC (A. baumannii; strain Abl4, read-out: MIC): 1 µg/mL (≈ 1.71 µM); MIC ([4]; Staphylococcus aureus, strain MRSA15, read-out: MIC): 8 to 16 µg/mL (≈ 13.7 to 27.3 µM); MIC ([4]; strain MRSA16): 8 to 16 µg/mL; susceptibility ([1]; strain Kp1): susceptible; susceptibility ([1]; strain Kp4): susceptible; MIC (P. aeruginosa; strain Pa46, read-out: MIC): 8 µg/mL (≈ 13.7 µM); MIC (P. aeruginosa; strain Pa1016, read-out: MIC): 0.5 µg/mL (≈ 0.854 µM); susceptibility ([2]; strain Abl4 (ST2)): susceptible; MIC (S. epidermidis; strain SE14, read-out: MIC): 1 to 2 µg/mL (≈ 1.71 to 3.42 µM); MIC (S. epidermidis; strain SE94, read-out: MIC): 1 µg/mL (≈ 1.71 µM); clinical category (CLSI breakpoint) ([3]; strain Pa46): S; susceptibility ([3]; strain Pa46): susceptible; clinical category (CLSI breakpoint) ([3]; strain Pa54): S; susceptibility ([3]; strain Pa54): susceptible; clinical category (CLSI breakpoint) ([3]; strain Pa1016): S; susceptibility ([3]; strain Pa1016): susceptible |
